According to patent US6500669B1, “Programmable genotoxic agents and uses therefor” (Massachusetts Institute of Technology, priority 1994, dated 2002):
Read-outs that look alike come from different tables or passages of the source.

How the values were obtained:
estrogen receptor (ER) [1] = target: T1, estrogen receptor (ER) (Bos taurus, UniProt P49884); assay: In vitro [3H]E2 competition assay, calf uterine extracts, free compounds; assay type: binding; conditions: free compound
T1 construct: uterine cytosol was prepared by homogenizing calf uteri; from tissue; host or cells: calf uterus, cytosol (105,000 g supernatant)
T1 sequence (P49884 1-596): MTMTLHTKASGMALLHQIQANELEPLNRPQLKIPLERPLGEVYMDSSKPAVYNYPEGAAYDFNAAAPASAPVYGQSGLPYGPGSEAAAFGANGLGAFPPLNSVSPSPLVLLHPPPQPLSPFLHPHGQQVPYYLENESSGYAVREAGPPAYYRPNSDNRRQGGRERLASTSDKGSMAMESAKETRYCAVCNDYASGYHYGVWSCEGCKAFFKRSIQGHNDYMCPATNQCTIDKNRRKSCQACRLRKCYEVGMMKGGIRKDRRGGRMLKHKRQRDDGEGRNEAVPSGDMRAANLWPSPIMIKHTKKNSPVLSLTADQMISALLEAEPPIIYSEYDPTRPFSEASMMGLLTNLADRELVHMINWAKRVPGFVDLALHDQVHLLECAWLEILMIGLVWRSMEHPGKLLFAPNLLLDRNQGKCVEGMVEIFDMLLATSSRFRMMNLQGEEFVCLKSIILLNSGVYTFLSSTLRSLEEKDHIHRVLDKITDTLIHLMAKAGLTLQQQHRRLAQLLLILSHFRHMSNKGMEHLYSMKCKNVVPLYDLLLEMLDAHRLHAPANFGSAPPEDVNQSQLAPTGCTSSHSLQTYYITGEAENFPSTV
Protocol: Assays were performed by premixing a range of concentrations of the test compound with a fixed amount of tritium labeled estradiol ([^3H]E2). Calf uterine cytosol was then added. After incubation overnight at 4° C., activated charcoal/dextran was added to remove unbound [^3H]E2. Following centrifugation to remove the charcoal/dextran, levels of bound (i.e., non-competed) [^3H]E2 were determined by liquid scintillation spectrometry. Low concentrations of test compound required to abolish [^3H]E2 binding in this assay indicate a tight association between the test compound and the ER.

estrogen receptor (ER) [2] = target: T1, estrogen receptor (ER); assay type: binding, calf
[3] = system: MCF-7 and MDA-MB-231 cells; assay: Methylene blue dye binding growth assay in breast tumor cell lines; assay type: cell-based, human; conditions: ED50 = concentration that inhibits cell growth by 50%
Protocol: The toxicities of the preferred 2-phenylindole-C6NC2-mustard and homologous ligand decoy compounds for selected cells distinguished phenotypically from nonselected cells by expression of ER were tested using the human breast tumor cell lines, MCF-7 and MDA-MB-231, according to the guidelines set forth in Example 10 (above). The MCF-7 cell line expresses the estrogen receptor protein, while no ER protein can be detected in the MDA-MB-231 cell line.
Both cell lines were routinely cultured in Minimal Essential Medium (MEM) supplemented with 2 mM gluatamine, 1 mM sodium pyruvate and 10% fetal calf serum. To determine the toxicity of test compounds, cells were trypsinized and plated in 100 μl of media in 96-well microtiter plates at the following densities: MCF-7, 2000 cells/well; MDA-MB-231, 1000 cells/well. Cells were allowed to grow for 24 hours in the 96-well plates prior to treatment with the compounds. […]
Each treatment condition was conducted in replicates of 8 wells. […] On day 4, cell growth in treated and control cultures was determined using the methylene blue dye binding assay.
A dye-binding assay as described by Finlay et al. (1984), 139 Anal. Biochem. 272 was used to assess the cytotoxic effects of 2-phenylindole-C6NC2-mustard and homologous ligand decoy compounds. […] The absorbance of the solubilized dye was read at 620 nm in a Ceres 9000 plate reader (Biotek).

[4] = system: HeLa 36 (ER+) and HeLa 7 (ER-) cells; assay: Methylene blue dye binding toxicity assay in HeLa ER transformants
hUBF = target: T2, hUBF (Homo sapiens, UniProt P17480); assay: Southwestern blotting of hUBF with platinated DNA probes; assay type: binding; conditions: southwestern and western blot; DNA globally modified by the platinum compound
T2 construct: made in house; host or cells: in vitro transcription and translation (cell-free) from plasmid pTbGUBF1
T2 sequence (P17480 1-764): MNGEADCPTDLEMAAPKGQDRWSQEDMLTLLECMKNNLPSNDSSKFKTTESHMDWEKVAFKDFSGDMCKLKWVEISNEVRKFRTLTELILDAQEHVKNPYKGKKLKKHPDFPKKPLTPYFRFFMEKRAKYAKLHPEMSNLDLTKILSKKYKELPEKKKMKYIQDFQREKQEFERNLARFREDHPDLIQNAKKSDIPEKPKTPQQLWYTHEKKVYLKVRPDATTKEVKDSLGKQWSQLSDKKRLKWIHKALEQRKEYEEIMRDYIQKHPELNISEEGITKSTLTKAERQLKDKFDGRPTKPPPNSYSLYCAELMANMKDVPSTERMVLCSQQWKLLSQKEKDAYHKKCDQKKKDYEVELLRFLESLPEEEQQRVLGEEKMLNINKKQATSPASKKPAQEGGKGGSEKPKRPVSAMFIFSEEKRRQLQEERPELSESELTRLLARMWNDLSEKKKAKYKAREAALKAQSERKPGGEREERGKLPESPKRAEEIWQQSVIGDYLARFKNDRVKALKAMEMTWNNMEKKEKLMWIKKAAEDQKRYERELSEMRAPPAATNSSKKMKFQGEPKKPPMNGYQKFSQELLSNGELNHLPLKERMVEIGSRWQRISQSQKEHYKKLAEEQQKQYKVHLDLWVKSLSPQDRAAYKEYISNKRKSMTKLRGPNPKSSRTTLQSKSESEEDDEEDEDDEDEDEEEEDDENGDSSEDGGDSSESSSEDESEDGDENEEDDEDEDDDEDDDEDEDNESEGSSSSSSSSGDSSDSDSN
Protocol: Probe Preparation. The DNA probe used for southwestern blotting was a 422 base pair (bp) AvaI restriction fragment excised from M13mp19 replicative form DNA. Platinated probes were prepared by treating the AvaI-digested DNA with cisplatin or trans-DDP, and the formal bound drug/nucleotide ratios (rb) were determined by using atomic absorption spectroscopy as described in Donahue et al. (1990), 29 Biochemistry 5872-5880.
Western and Southwestern Blotting Technique. HeLa whole cell extracts (WCE) were prepared by the sonication procedure of Samson et al. (1986), 83 Proc. Natl. Acad. Sci. U.S.A. 5607-5610. The 97 kDa hUBF species was synthesized by in vitro transcription and translation from the plasmid pTbGUBF1 as reported in Jantzen et al. (1992), 6 Genes & Dev. 1950-1963. In vitro translated hUBF was quantitated by the incorporation of ^35S-methionine. Protein samples ([…] WCE or 8 ng hUBF) were resolved on 5-15% gradient SDS polyacrylamide gels and transferred to nitrocellulose membranes. Parallel blots of HeLa whole cell extracts (WCE) and in vitro translated hUBF (hUBF) were probed with various ^32P labeled DNA fragments (southwestern analysis, panels A-C of FIG. 2) or antiserum against hUBF (Anti-NOR-90) (panel D of FIG. 2). For southwestern analysis, the air dried membranes were processed as reported in Toney et al. (1989), 86 Proc. Natl. Acad. Sci. U.S.A. 8328-8332. […]

Q: How did the “affinity for the ER relative to estradiol (E2)” value (estrogen receptor (ER) [1]; calf uterine cytosol) turn out when `O=C(NCCCc1ccc(N(CCCl)CCCl)cc1)OCCNCCCCCCn1c(-c2ccc(O)cc2)cc2cc(O)ccc21` [2-phenylindole-C6NC2-mustard] was run?
A: Its value is at most 20 fold.

Q: What about the “affinity for the ER (in words)” value (estrogen receptor (ER) [1]; competition with [3H]E2) of the same compound?
A: The value was “highest affinity”.

Q: What about the “affinity of DNA lesions formed by the compound for ER” value (estrogen receptor (ER) [2]) of the same compound?
A: Its value is “compete effectively”.

Q: What about the “ED50 in MCF-7 relative to ED50 in MDA-MB-231” value [3] of the same compound?
A: Its value is “two- to three-fold lower”.

Q: What about the “differential in toxicity between HeLa 36 and HeLa 7” value ([4]; 4 hr. exposure, 2.5 μM dose) of the same compound?
A: Its value is “approximately a two-fold differential”.

Q: And the “cytotoxicity in HeLa 36 cells relative to HeLa 7 cells” value ([4]; 4 hr. exposure, 5 μM dose)?
A: The value was “four- to five-fold greater cytotoxicity”.

Q: And the “effect in HeLa 36 cells relative to HeLa 7 cells” value ([4]; 4 day exposure)?
A: Its value is “selectively toxic and growth inhibitory effect”.

Q: For `O=C(O)CCCc1ccc(N(CCCl)CCCl)cc1` [chlorambucil, reference compound], which “affinity of DNA lesions formed by the compound for ER” value (estrogen receptor (ER) [2]; isolated DNA lesioned with compound, competition with E2) is on record?
A: The value was “no affinity”.

Q: Which “binding of in vitro translated hUBF to drug-modified DNA” value (hUBF) does the source give for `N.N.[Cl][Pt][Cl]` [cisplatin, cis-diamminedichloro-platinum(II)] here?
A: Its value is “bound”.

Q: How did the “binding of in vitro translated hUBF to drug-modified DNA” value (hUBF) turn out when `N.N.[Cl][Pt][Cl]` [trans-DDP, trans-Diamminedichloroplatinum (II)] was run?
A: The value was “failed to recognize”.
